The values below come from patent US4377581A, “Chloro- and alkoxy-substituted-2,4-diaminoquinazolines” (Pfizer Inc., priority 1981, dated 1983).

SMILES strings stand for the structures. Entries after “also recorded” stand apart in the source; their conditions may differ. Counter-ions that a name gives are not always drawn. Like-named read-outs stand apart in the source and are kept apart here.

One data set can be described thus: Water solubility. The data set is classed as physicochemical.
For data set [1] the following is noted: Althuis et al., J. Med. Chem., 20, 146 (1977); cited from earlier work.
Data set [2] deals with conscious renally hypertensive dogs. Put plainly: Blood pressure lowering in conscious renally hypertensive dogs, oral. The class given is in vivo, dog. The protocol: The antihypertensive activity of the compounds of the invention is shown by their ability to lower the blood pressure of conscious spontaneously hypertensive rats and conscious renally hypertensive dogs, when administered orally at doses of up to 30 mg./kg.
Similarly, at the same dosage 2-[4-(2-hydroxy-2-methylprop-1-yloxycarbonyl)piperazin-1-yl]-4-amino-6-chloro-7-methoxyquinazoline, a particularly preferred compound of the invention, caused a reduction of 40 mm. Hg after one hour which increased only by 20 mm. Hg 6 hours after administration; and another particularly preferred compound: 2-[4-(2-furoyl)-1-piperazinyl]-4-amino-6-chloro-7-methoxyquinazoline effected a reduction in blood pressure of 40 mm. Hg which increased by only 5 mm. Hg six hours after the oral dose (0.2 mg./hg.) had been administered.

The conditions of data set [3]: literature; cited from earlier work.
[4] abbreviates: Example 10 table, hydrochloride salts except as otherwise noted, solvent not given, read-out: Solubility.
Setting [5] is: water, hydrochloride salts, read-out: water solubility.

In general, solubility refers to the dissolved amount per volume that the medium holds. In the case of `COc1ccc2c(N)nc(N3CCN(C(=O)C4CCCO4)CC3)nc2c1OC` (stereo not shown), the solubility in the data set “Water solubility” (setting [4]) stood at 150 mg/mL. `COc1cc2c(N)nc(N3CCN(C(=O)c4ccco4)CC3)nc2cc1O` [7-0-demethyl derivative]: the metabolite of prazosin entry in data set [1] is “less prevalent metabolite”.

As for `COc1ccc2c(N)nc(N3CCN(C(=O)c4ccco4)CC3)nc2c1OC.Cl` [Example 4, 2-[4-(2-Furoyl)piperazine-1-yl]-4-amino-7,8-dimethoxyquinazoline hydrochloride], the solubility in the data set “Water solubility” (setting [5]) came to 20 mg/mL.

With `COc1cc2nc(N3CCN(C(=O)c4ccco4)CC3)nc(N)c2cc1Cl.Cl` [Example 8B, 2-[4-(2-Furoyl)piperazine-1-yl]-4-amino-6-chloro-7-methoxyquinazoline hydrochloride], the solubility in the data set “Water solubility” (setting [5]) came to 5 mg/mL. Turning to `COc1c(Cl)cc2c(N)nc(N3CCN(C(=O)c4ccco4)CC3)nc2c1OC.Cl` [Example 8A, 2-[4-(2-Furoyl)piperazine-1-yl]-4-amino-6-chloro-7,8-dimethoxyquinazoline hydrochloride], in “Water solubility” (setting [5]), the solubility worked out at 8 mg/mL.

In the case of `COc1ccc2c(N)nc(N3CCN(c4ccccc4)CC3)nc2c1OC` [C6 H5], in “Water solubility” (setting [4]), the solubility is 25 mg/mL. Take `COc1ccc2c(N)nc(N3CCN(C(=O)c4cccs4)CC3)nc2c1OC`: the solubility in the data set “Water solubility” (setting [4]) was 11 mg/mL. Take `COc1cc2nc(N3CCN(C(=O)c4ccco4)CC3)nc(N)c2cc1Cl` [2-[4-(2-furoyl)-1-piperazinyl]-4-amino-6-chloro-7-methoxyquinazoline]: in data set [2] (0.2 mg./hg. as printed, time of reduction not given), the “reduction in blood pressure” value is on record as 40 mm. Hg. In data set [2] (0.2 mg./kg.), the heart rate change result is listed as “no significant heart rate change”, the other side effect result is “no significant heart rate change or other unwanted side effect” and the “increase (return) of the reduced blood pressure 6 hours after administration” value is reported as 5 mm. Hg. With `COc1ccc2c(N)nc(N3CCC(Cc4ccccc4)CC3)nc2c1OC.Cl` [Example 13, 2-(4-Benzylpiperidin-1-yl)-4-amino-7,8-dimethoxyquinazoline hydrochloride], the solubility in “Water solubility” (setting [5]) came to 6 mg/mL. On to `COc1ccc2c(N)nc(N3CCN(c4cccc(C(F)(F)F)c4)CC3)nc2c1OC` [3-CF3 C6 H4], for which the solubility in “Water solubility” (setting [4]) stood at 8 mg/mL. Take `COc1ccc2c(N)nc(N3CCCN(C(=O)C4CCCO4)CC3)nc2c1OC.Cl` (stereo not shown) [Example 12, 2-[4-(2-Tetrahydrofuroyl)homopiperazin-1-yl]-4-amino-7,8-dimethoxyquinazoline hydrochloride]: the solubility in the data set “Water solubility” (setting [5]) amounted to 120 mg/mL. As for `CCCCOC(=O)N1CCN(c2nc(N)c3ccc(OC)c(OC)c3n2)CC1` [COO(CH 2)3 CH3], the solubility in the data set “Water solubility” (setting [4]) was 90 mg/mL. Take `COc1ccc2c(N)nc(N3CCN(CCO)CC3)nc2c1OC` [CH2 CH2 OH]: the solubility in “Water solubility” (setting [4]) is 95 mg/mL. For `COc1cc2nc(N3CCN(C(=O)c4ccco4)CC3)nc(N)c2cc1OC` [prazosin, 2-[4-(2-furoyl)piperazin-1-yl]-4-amino-6,7-dimethoxyquinazoline], in data set [3], the “antihypertensive activity / potency” value was “clinically useful antihypertensive agent”. On to `COc1c(Cl)cc2c(N)nc(N3CCN(C(=O)OCC(C)(C)O)CC3)nc2c1OC.Cl` [Example 9A, 2-Methyl-2-hydroxypropyl 4-[4-amino-6-chloro-7,8-dimethoxyquinazolin-2-yl]piperazine-1-carboxylate hydrochloride], for which the solubility in “Water solubility” (setting [5]) was 35 mg/mL.

Take `COc1ccc2c(N)nc(N3CCCN(C(=O)c4ccco4)CC3)nc2c1OC` [Example 11, 2-[4-(2-Furoyl-homopiperazine-1-yl]-4-amino-7,8-dimethoxyquinazoline hydrochloride]: the solubility in the data set “Water solubility” (setting [5]) stood at 30 mg/mL. The same measure, in the same setting: next, `COc1cc2nc(N3CCN(C(=O)OCC(C)(C)O)CC3)nc(N)c2cc1Cl` [Example 9B, hydrochloride]: 6 mg/mL. Take `COc1ccc2c(N)nc(N3CCN(C(=O)c4ccccc4)CC3)nc2c1OC`: the solubility in the data set “Water solubility” (setting [4]) came to 50 mg/mL.

On to `COc1cc2nc(N3CCN(C(=O)c4ccco4)CC3)nc(N)c2cc1O` [6-0-demethyl derivative], for which the metabolite of prazosin result in data set [1] is reported as “major metabolite of prazosin”. In addition, the “antihypertensive activity / potency” value in data set [3] is given as “considerably lower blood pressure lowering activity”.

Take `CCCCCOC(=O)N1CCN(c2nc(N)c3ccc(OC)c(OC)c3n2)CC1` [COO(CH2)4 CH3]: the solubility in the data set “Water solubility” (setting [4]) is 40 mg/mL. Still for that read-out and setting: with `COc1ccc2c(N)nc(N3CCN(C(=O)OCC(C)C)CC3)nc2c1OC` [COOCH2 CH(CH3)2] the figure was 40 mg/mL; with `COc1ccc2c(N)nc(N3CCN(C(=O)C4COc5ccccc5O4)CC3)nc2c1OC` (stereo not shown), 15 mg/mL. For `COC(=O)N1CCN(c2nc(N)c3ccc(OC)c(OC)c3n2)CC1` [COOCH3], the solubility in the data set “Water solubility” (setting [4]) stood at 40 mg/mL.

As to `COc1c(Cl)cc2c(N)nc(N3CCN(C(=O)OCC(C)(C)O)CC3)nc2c1OC` [2-[4-(2-hydroxy-2-methylprop-1-yloxycarbonyl)piperazin-1-yl]-4-amino-6-chloro-7,8-dimethoxyquinazoline], in data set [2] (0.2 mg./kg.), the heart rate change result is given as “no significant change in heart rate” and the other side effect result is reported as “no significant change in heart rate or other side effect”. Also, the “decrease of blood pressure after 4 hours” value in data set [2] (0.2 mg./kg., 4 hours, statistically significant) was found to be 30 mm. Hg. Consider `COc1ccc2c(N)nc(N3CCN(Cc4ccccc4)CC3)nc2c1OC` [CH2 C6 H5], for which the solubility in the data set “Water solubility” (setting [4]) amounted to 100 mg/mL. `COc1cc2nc(N3CCN(C(=O)OCC(C)(C)O)CC3)nc(N)c2cc1Cl` [2-[4-(2-hydroxy-2-methylprop-1-yloxycarbonyl)piperazin-1-yl]-4-amino-6-chloro-7-methoxyquinazoline]: in data set [2] (0.2 mg./kg.), the heart rate change entry is “no significant heart rate change”, the other side effect result is recorded as “no significant heart rate change or other unwanted side effect” and the “increase (return) of the reduced blood pressure 6 hours after administration” value was 20 mm. Hg. In data set [2] (same dosage (0.2 mg./kg.), one hour), the “reduction of blood pressure after one hour” value was determined as 40 mm. Hg. Turning to `C=CCN1CCN(c2nc(N)c3ccc(OC)c(OC)c3n2)CC1` [CH2 CHCH2], the solubility in “Water solubility” (setting [4]) turned out to be 50 mg/mL. As for `CCOC(=O)N1CCN(c2nc(N)c3ccc(OC)c(OC)c3n2)CC1` [COOCH2 CH3], the solubility in “Water solubility” (setting [4]) was determined as 50 mg/mL. As to `COc1cc2c(N)nc(N3CCN(C(=O)OCC(C)(C)O)CC3)nc2c(OC)c1OC` [Trimazosin], the “antihypertensive activity / potency” value in data set [3] was “active antihypertensive agent; also recorded: less potent than prazosin”. For the compound `COc1ccc2c(N)nc(N3CCN(C(=O)OCCC(C)C)CC3)nc2c1OC` [COO(CH2)2 CH(CH3)2], the solubility in “Water solubility” (setting [4]) worked out at 25 mg/mL. The same measure, in the same setting: next, `CCCOC(=O)N1CCN(c2nc(N)c3ccc(OC)c(OC)c3n2)CC1` [COO(CH2)2 CH3]: 140 mg/mL.
